Key:
[1] = Quenching of dye absorbance by glutathione (GSH); assay type: physicochemical; conditions: absence versus presence of GSH
Source text: The absorbance of NR708 in the absence or presence of GSH is shown.
In order to improve the chemical stability of NR dyes to nucleophiles found in biological systems, such as glutathione (GSH), bulky substituents were introduced to protect the C9 position of the dyes from nucleophilic attack. Accordingly, derivatives of NR700 and NR666, termed NR708 and NR675, respectively, were synthesized that bear bulky substituents on the pendant phenyl ring proximal to the C9 position of the dye (FIG. 3.1). […] The improved chemical stability of these dyes will provide brighter probes for imaging applications.

[2] = Aggregation in aqueous solution (absorbance versus concentration, SDS addition); assay type: physicochemical; conditions: for effect of surfactant on absorbance: addition of 0.1% SDS, water; for aggregation / H-aggregate formation (blue-shifted absorbance band): aqueous solutions; for aggregation / H-aggregate formation (blue-shifted absorbance band) / linearity of absorbance versus concentration: increasing concentrations; for linearity of absorbance versus concentration: in water
Source text: FIG. 2.2A: The structure of methylene blue (MB) and NR751.

RAW 264.7 cells = assay: Confocal imaging of RAW 264.7 cells with or without stimulation to produce endogenous HOCl; assay type: cell-based; conditions: 50 μM; cells producing HOCl
Method: FIGS. 5.2A-5.2C show phosphinate-containing dyes as gated small molecule delivery vehicles for cytotoxic compounds in cells. FIG. 5.2A: The structure of NR—HOCl-1541B (left). Selective reaction with HOCl results in the gated release of 1541B, a cytotoxic compound, and a fluorescent NR dye (right) FIG. 5.2B: Viability of RAW 264.7 macrophages in the presence or absence of stimulation to produce endogenous HOCl (LPS and PMA), cells were incubated with 50 μM 1541B or NR—HOCl-1541B where indicated. FIG. 5.2C: Confocal imaging of RAW 264.7 cells incubated with 50 μM NR—HOCl-1541B in the presence or absence of stimulation to produce endogenous HOCl.

quenching / change of absorbance in the presence of glutathione (GSH) [1]	aggregation / H-aggregate formation (blue-shifted absorbance band) [2]	SMILES	effect of surfactant on absorbance [2]	linearity of absorbance versus concentration [2]	fluorescence and payload delivery in cells (RAW 264.7 cells)
virtually no quenching		COc1cccc(OC)c1C1=C2C=CC(=[N+](C)C)C=C2P(=O)(O)c2cc(N(C)C)ccc21 [NR675]			
	increase in H-aggregate formation	CN(C)c1ccc2nc3ccc(=[N+](C)C)cc-3sc2c1 [MB, methylene blue, reference compound]	reduces the intensity of the blue-shifted H-Aggregate absorption band	clear deviation from linearity	
	significantly reduced aggregation	CC1=CC(=[N+](C)C)C=C2C1=Nc1c(C)cc(N(C)C)cc1P2(=O)O [NR751]	No change is observed in the absorbance	clear linear increase in absorbance versus concentration	
		CN(C)c1ccc2c(c1)P(=O)(Oc1cccc3cc(C(=O)Nc4cccc(-c5cn6ccccc6n5)c4)c(=O)oc13)c1cc(N(C)C)ccc1C21SCc2ccccc21 (centres unmarked) [NR—HOCl-1541B]			Clear evidence of fluorescence, and payload delivery

Source: patent US20240239823A1, “PHOSPHINATE ESTER-CONTAINING DYES HAVING TUNABLE PROPERTIES AND METHODS OF MAKING THE SAME” (University of Virginia Patent Foundation, priority 2021, published 2024)
